Experimental data reported in patent US4728659A, “Aminomethyl derivatives and preparation process thereof as well as platelet aggregation inhibitors containing same” (SS Pharmaceutical Co., Ltd., priority 1984, dated 1988).
Values after ≈ are worked out from the molar mass of the structure shown.

tested on: platelet aggregation by ADP; test: Inhibition of aggregation of rabbit platelets (PRP) by ADP; assay type: cell-based; details: Oryctolagus cuniculus, ADP 3 μM, compound added 2 minutes before agent, read-out: 50% Platelet Aggregation Inhibitory Concentration (IC50), ADP
Procedure: (§1) Blood, which had been added with sodium citrate, was collected from a male rabbit (body weight: 3 Kg), which was then subjected suitably to centrifugation so that platelet-rich plasma (PRP) and platelet-poor plasma (PPP) were obtained. Inhibitory effects of certain sample compounds of this invention against aggregation by ADP (3 μM) and arachidonic acid (1 mM) were thereafter tested by a method known per se in the art. Each sample compound was dissolved in 5% dimethylsulfoxide (DMSO) and Tween 80 (trade mark) and was then added to PRP 2 minutes before addition of each of the aggregation agents to the PRP.

SMILES	IC50
CCN(CC)CC#CC(=O)c1ccc(C)cc1 [Example 1, N-[4-(p-Methylphenyl)-4-oxo-2-butynyl]-N,N-diethylamine]	7 µg/mL (≈ 30.5 µM)
CCN(CC)CC#CC(=O)c1ccc(OC)cc1 [Example 4]	9 µg/mL (≈ 36.7 µM)
CN(C)CC#CC(=O)c1ccccc1 [Example 15, N-(4-Phenyl-4-oxo-2-butynyl)-N,N-dimethylamine]	21 µg/mL (≈ 112 µM)
CCCN(CC)CC#CC(=O)c1ccccc1 [Example 16, N-(4-Phenyl-4-oxo-2-butynyl)-N-ethyl-N-n-propylamine]	18 µg/mL (≈ 78.5 µM)
CCN(CC)CC#CC(=O)c1ccccc1 [Example 17]	20 µg/mL (≈ 92.9 µM)

tested on: platelet aggregation by arachidonic acid; test: Inhibition of aggregation of rabbit platelets (PRP) by arachidonic acid; assay type: cell-based; details: Oryctolagus cuniculus, arachidonic acid 1 mM, compound added 2 minutes before agent, read-out: 50% Platelet Aggregation Inhibitory Concentration (IC50), Arachidonic acid
Procedure: as §1

SMILES	IC50
CCN(CC)CC#CC(=O)c1ccc(C)cc1 [Example 1, N-[4-(p-Methylphenyl)-4-oxo-2-butynyl]-N,N-diethylamine]	2.5 µg/mL (≈ 10.9 µM)
CCN(CC)CC#CC(=O)c1ccc(OC)cc1 [Example 4]	3.6 µg/mL (≈ 14.7 µM)
CN(C)CC#CC(=O)c1ccccc1 [Example 15, N-(4-Phenyl-4-oxo-2-butynyl)-N,N-dimethylamine]	4.7 µg/mL (≈ 25.1 µM)
CCCN(CC)CC#CC(=O)c1ccccc1 [Example 16, N-(4-Phenyl-4-oxo-2-butynyl)-N-ethyl-N-n-propylamine]	4.3 µg/mL (≈ 18.8 µM)
CCN(CC)CC#CC(=O)c1ccccc1 [Example 17]	4.5 µg/mL (≈ 20.9 µM)

tested on: platelet aggregation by ADP; test: Platelet aggregation by ADP in PRP after oral administration to rats (ex vivo); details: 30 mg/Kg oral, male Wister rat, blood collected 2 hours after administration, 60 μM ADP, read-out: Percent inhibition against aggregation, ADP
Procedure: (§2) Each sample compound was orally administered at 30 mg/Kg to a male Wister rat (body weight: 220 g) which had fasted for 24 hours. Platelet-rich plasma was obtained from blood which had been collected 2 hours after the administration and added with sodium citrate. Changes in platelet aggregation upon addition of 60 μM of ADP or 100 μg/ml of collagen were observed. The number of platelets was adjusted to 6×10^5 platelets/mm^3 for aggregation by ADP and to 3×10^5 platelets/mm^3 for aggregation by collagen. Each of the sample compounds was dissolved in DMSO+Tween 80 (trade mark) prior to its administration.

SMILES	inhibition at 30 mg/kg
CCN(CC)CC#CC(OC(=O)c1cccnc1)c1ccc(C)cc1 (centres unmarked) [Example 7]	20.1%
CCN(CC)C/C=C/C(OC(=O)c1cccnc1)c1ccc(C)cc1 (centres unmarked) [Example 13]	30.5%

tested on: platelet aggregation by collagen; test: Platelet aggregation by collagen in PRP after oral administration to rats (ex vivo); details: 30 mg/Kg oral, male Wister rat, blood collected 2 hours after administration, 100 μg/ml collagen, read-out: Percent inhibition against aggregation, collagen
Procedure: as §2

SMILES	inhibition at 30 mg/kg
CCN(CC)CC#CC(OC(=O)c1cccnc1)c1ccc(C)cc1 (centres unmarked) [Example 7]	37.6%
CCN(CC)C/C=C/C(OC(=O)c1cccnc1)c1ccc(C)cc1 (centres unmarked) [Example 13]	31.5%

tested on: not listed separately; test: Acute toxicity, intraperitoneal, mice; assay type: in vivo; details: 200 mg/Kg intraperitoneal, five ddY male mice, after 7 days
Procedure: Each of certain sample compounds (which had been obtained in Examples 6, 7, 10 and 15-17, which will be given herein) was dissolved in water and was then administered intraperitoneally at a dose of 200 mg/Kg to a group of five ddY male mice. Those mice were fed for 7 days while observing them.

SMILES	abnormality observed	survival of mice
CCN(CC)CC#CC(OC(=O)c1cccnc1)c1ccccc1 (centres unmarked) [Example 6, N-(4-Nicotinoyloxy-4-phenyl-2-butynyl)-N,N-diethylamine]	no abnormality was observed	all the mice were still alive
CCN(CC)CC#CC(OC(=O)c1cccnc1)c1ccc(C)cc1 (centres unmarked) [Example 7]	no abnormality was observed	all the mice were still alive
CCN(CC)CC#CC(OC(=O)c1cccnc1)c1ccc(OC)cc1 (centres unmarked) [Example 10]	no abnormality was observed	all the mice were still alive

same assay, conditions: mouse, in vivo, ip

SMILES	LD50 at 168 h
CCN(CC)CC#CC(OC(=O)c1cccnc1)c1ccc(C)cc1 (centres unmarked) [Example 7]	> 200 mg/kg
CCN(CC)CC#CC(OC(=O)c1cccnc1)c1ccc(OC)cc1 (centres unmarked) [Example 10]	> 200 mg/kg
CCN(CC)CC#CC(=O)c1ccccc1 [Example 17]	> 200 mg/kg

same assay, conditions: mouse, in vivo, ip; intraperitoneal, ddY male mice, 7 days observation

SMILES	LD50 at 168 h
CCN(CC)CC#CC(OC(=O)c1cccnc1)c1ccccc1 (centres unmarked) [Example 6, N-(4-Nicotinoyloxy-4-phenyl-2-butynyl)-N,N-diethylamine]	> 200 mg/kg
CN(C)CC#CC(=O)c1ccccc1 [Example 15, N-(4-Phenyl-4-oxo-2-butynyl)-N,N-dimethylamine]	> 200 mg/kg
CCCN(CC)CC#CC(=O)c1ccccc1 [Example 16, N-(4-Phenyl-4-oxo-2-butynyl)-N-ethyl-N-n-propylamine]	> 200 mg/kg
